Patent US9493446B2, “Orexin receptor antagonists which are [ortho bi-(hetero-)aryl]-[2-(meta bi-(hetero-)aryl)-pyrrolidin-1-yl]-methanone derivatives” (Actelion Pharmaceuticals Ltd, priority 2012, dated 2016)

Tests used:
orexin-1 = orexin-1 (Homo sapiens (Human), UniProt O43613); test: Intracellular calcium measurement (FLIPR), CHO cells expressing human orexin-1 receptor, 3 nM orexin-A; format: cell-based; conditions: CHO cells expressing human orexin-1 receptor, FLIPR, 3 nM orexin-A; geometric mean if determined several times; read-out: IC50 OX1
orexin-1, sequence (O43613 whole entry): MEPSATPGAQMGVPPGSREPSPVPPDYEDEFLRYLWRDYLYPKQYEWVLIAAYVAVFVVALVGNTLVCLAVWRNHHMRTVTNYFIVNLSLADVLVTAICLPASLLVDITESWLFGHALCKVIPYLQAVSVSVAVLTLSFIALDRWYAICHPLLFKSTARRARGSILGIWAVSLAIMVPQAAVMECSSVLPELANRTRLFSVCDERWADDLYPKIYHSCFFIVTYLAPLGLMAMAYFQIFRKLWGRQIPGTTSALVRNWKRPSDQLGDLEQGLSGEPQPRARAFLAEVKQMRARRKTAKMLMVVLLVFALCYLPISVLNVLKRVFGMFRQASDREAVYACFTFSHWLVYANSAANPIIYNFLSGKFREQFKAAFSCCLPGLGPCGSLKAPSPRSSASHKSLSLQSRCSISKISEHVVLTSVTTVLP
Experimental: (§1) In Vitro Assay: Intracellular Calcium Measurements:
(§2) Chinese hamster ovary (CHO) cells expressing the human orexin-1 receptor and the human orexin-2 receptor, respectively, are grown in culture medium (Ham F-12 with L-Glutamine) containing 300 μg/mL G418, 100 U/mL penicillin, 100 μg/mL streptomycin and 10% heat inactivated fetal calf serum (FCS). The cells are seeded at 20,000 cells/well into 384-well black clear bottom sterile plates (Greiner). The seeded plates are incubated overnight at 37° C. in 5% CO2.
(§3) Human orexin-A as an agonist is prepared as 1 mM stock solution in MeOH: water (1:1), diluted in HBSS containing 0.1% bovine serum albumin (BSA), NaHCO3: 0.375 g/L and 20 mM HEPES for use in the assay at a final concentration of 3 nM.
(§4) Antagonists are prepared as 10 mM stock solution in DMSO, then diluted in 384-well plates using DMSO followed by a transfer of the dilutions into in HBSS containing 0.1% bovine serum albumin (BSA), NaHCO3: 0.375 g/L and 20 mM HEPES. On the day of the assay, 50 μL of staining buffer (HBSS containing 1% FCS, 20 mM HEPES, NaHCO3: 0.375 g/L, 5 mM probenecid (Sigma) and 3 μM of the fluorescent calcium indicator fluo-4 AM (1 mM stock solution in DMSO, containing 10% pluronic) is added to each well. The 384-well cell-plates are incubated for 50 min at 37° C. in 5% CO2 followed by equilibration at rt for 30 min before measurement.
(§5) Within the Fluorescent Imaging Plate Reader (FLIPR Tetra, Molecular Devices), antagonists are added to the plate in a volume of 10 μL/well, incubated for 120 min and finally 10 μL/well of agonist is added. Fluorescence is measured for each well at 1 second intervals, and the height of each fluorescence peak is compared to the height of the fluorescence peak induced by 3 nM orexin-A with vehicle in place of antagonist. […] Optimized conditions were achieved by adjustment of pipetting speed and cell splitting regime. The calculated IC50 values may fluctuate depending on the daily cellular assay performance. Fluctuations of this kind are known to those skilled in the art.

human orexin-2 receptor = human orexin-2 receptor (Homo sapiens (Human), UniProt O43614); test: Intracellular calcium measurement (FLIPR), CHO cells expressing human orexin-2 receptor, 3 nM orexin-A; format: cell-based; conditions: CHO cells expressing human orexin-2 receptor, FLIPR, 3 nM orexin-A; geometric mean if determined several times; read-out: IC50 OX2
human orexin-2 receptor, sequence (O43614 whole entry): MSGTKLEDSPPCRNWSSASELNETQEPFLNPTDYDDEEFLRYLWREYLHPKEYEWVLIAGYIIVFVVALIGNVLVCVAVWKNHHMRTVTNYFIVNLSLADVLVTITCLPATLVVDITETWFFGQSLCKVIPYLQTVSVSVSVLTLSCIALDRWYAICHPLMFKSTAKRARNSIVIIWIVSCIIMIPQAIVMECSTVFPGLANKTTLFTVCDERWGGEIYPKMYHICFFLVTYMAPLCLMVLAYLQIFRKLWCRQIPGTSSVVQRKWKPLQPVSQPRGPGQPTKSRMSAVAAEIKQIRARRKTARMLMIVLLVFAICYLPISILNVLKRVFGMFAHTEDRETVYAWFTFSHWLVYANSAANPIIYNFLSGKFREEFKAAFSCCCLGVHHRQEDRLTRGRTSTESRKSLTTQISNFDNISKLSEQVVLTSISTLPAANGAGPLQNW
Experimental: as §1, §2, §3, §4, §5

Cc1ccc(-n2nccn2)c(C(=O)N2CCC[C@H]2c2nc(-c3ccccc3)no2)c1 [Example 1, (5-Methyl-2-[1,2,3]triazol-2-yl-phenyl)-[(S)-2-(3-phenyl-[1,2,4]oxadiazol-5-yl)-pyrrolidin-1-yl]-methanone]
IC50 (orexin-1): 373 nM
IC50 (human orexin-2 receptor): 40 nM

CC(=O)n1cc(-c2noc([C@@H]3CCCN3C(=O)c3cc(C)ccc3-n3nccn3)n2)c2ccccc21 [Example 85, 1-(3-{5-[(S)-1-(5-Methyl-2-[1,2,3]triazol-2-yl-benzoyl)-pyrrolidin-2-yl]-[1,2,4]oxadiazol-3-yl}-indol-1-yl)-ethanone]
IC50 (orexin-1): 28 nM
IC50 (human orexin-2 receptor): 23 nM

Cc1ccc(-n2nccn2)c(C(=O)N2CCC[C@H]2c2nc(-c3cccnc3OC(F)F)no2)c1 [Example 86, {(S)-2-[3-(2-Difluoromethoxy-pyridin-3-yl)-[1,2,4]oxadiazol-5-yl]-pyrrolidin-1-yl}-(5-methyl-2-[1,2,3]triazol-2-yl-phenyl)-methanone]
IC50 (orexin-1): 103 nM
IC50 (human orexin-2 receptor): 40 nM

Cc1ccc(-n2nccn2)c(C(=O)N2CCC[C@H]2c2nc(-c3ccccc3CCO)no2)c1 [Example 87, ((S)-2-{3-[2-(2-Hydroxy-ethyl)-phenyl]-[1,2,4]oxadiazol-5-yl}-pyrrolidin-1-yl)-(5-methyl-2-[1,2,3]triazol-2-yl-phenyl)-methanone]
IC50 (orexin-1): 439 nM
IC50 (human orexin-2 receptor): 70 nM

Cc1ccc(-n2nccn2)c(C(=O)N2CCC[C@H]2c2noc(-c3ccccc3)n2)c1 [Example 302, (5-Methyl-2-[1,2,3]triazol-2-yl-phenyl)-[(S)-2-(5-phenyl-[1,2,4]oxadiazol-3-yl)-pyrrolidin-1-yl]-methanone]
IC50 (orexin-1): 258 nM
IC50 (human orexin-2 receptor): 207 nM

Cc1ccc(-n2nccn2)c(C(=O)N2CCC[C@H]2c2noc(-c3ccccc3OC(F)(F)F)n2)c1 [Example 303, (5-Methyl-2-[1,2,3]triazol-2-yl-phenyl)-{(S)-2-[5-(2-trifluoromethoxy-phenyl)-[1,2,4]oxadiazol-3-yl]-pyrrolidin-1-yl}-methanone]
IC50 (orexin-1): 13 nM
IC50 (human orexin-2 receptor): 4 nM

Cc1ccc(-n2nccn2)c(C(=O)N2CCC[C@H]2c2noc(-c3cccc(Cl)c3C)n2)c1 [Example 318, {(S)-2-[5-(3-Chloro-2-methyl-phenyl)-[1,2,4]oxadiazol-3-yl]-pyrrolidin-1-yl}-(5-methyl-2-[1,2,3]triazol-2-yl-phenyl)-methanone]
IC50 (orexin-1): 42 nM
IC50 (human orexin-2 receptor): 7 nM

Cc1ccc(-n2nccn2)c(C(=O)N2CCC[C@H]2c2cc(-c3ccccc3)no2)c1 [Example 420, (5-Methyl-2-[1,2,3]triazol-2-yl-phenyl)-[(S)-2-(3-phenyl-isoxazol-5-yl)-pyrrolidin-1-yl]-methanone]
IC50 (orexin-1): 1060 nM
IC50 (human orexin-2 receptor): 133 nM

Cc1cccc(-c2nnc([C@@H]3CCCN3C(=O)c3cc(C)ccc3-n3nccn3)o2)c1 [Example 438, (5-Methyl-2-[1,2,3]triazol-2-yl-phenyl)-[(S)-2-(5-m-tolyl-[1,3,4]oxadiazol-2-yl)-pyrrolidin-1-yl]-methanone]
IC50 (orexin-1): 1490 nM
IC50 (human orexin-2 receptor): 359 nM

COc1c(F)cccc1-c1nnc([C@@H]2CCCN2C(=O)c2cc(C)ccc2-n2nccn2)o1 [Example 448, {(S)-2-[5-(3-Fluoro-2-methoxy-phenyl)-[1,3,4]oxadiazol-2-yl]-pyrrolidin-1-yl}-(5-methyl-2-[1,2,3]triazol-2-yl-phenyl)-methanone]
IC50 (orexin-1): 762 nM
IC50 (human orexin-2 receptor): 236 nM

CCOc1c(F)cccc1-c1nnc([C@@H]2CCCN2C(=O)c2cc(C)ccc2-n2nccn2)o1 [Example 449, {(S)-2-[5-(2-Ethoxy-3-fluoro-phenyl)-[1,3,4]oxadiazol-2-yl]-pyrrolidin-1-yl}-(5-methyl-2-[1,2,3]triazol-2-yl-phenyl)-methanone]
IC50 (orexin-1): 280 nM
IC50 (human orexin-2 receptor): 236 nM

CCOc1ncccc1-c1nnc([C@@H]2CCCN2C(=O)c2cc(C)ccc2-n2nccn2)o1 [Example 450, {(S)-2-[5-(2-Ethoxy-pyridin-3-yl)-[1,3,4]oxadiazol-2-yl]-pyrrolidin-1-yl}-(5-methyl-2-[1,2,3]triazol-2-yl-phenyl)-methanone]
IC50 (orexin-1): 182 nM
IC50 (human orexin-2 receptor): 95 nM

Cc1cc(C)cc(-c2nnc([C@@H]3CCCN3C(=O)c3cc(C)ccc3-n3nccn3)o2)c1 [Example 451, {(S)-2-[5-(3,5-Dimethyl-phenyl)-[1,3,4]oxadiazol-2-yl]-pyrrolidin-1-yl}-(5-methyl-2-[1,2,3]triazol-2-yl-phenyl)-methanone]
IC50 (orexin-1): 535 nM
IC50 (human orexin-2 receptor): 326 nM

CCc1ccccc1-c1nnc([C@@H]2CCCN2C(=O)c2cc(C)ccc2-n2nccn2)o1 [Example 452, {(S)-2-[5-(2-Ethyl-phenyl)-[1,3,4]oxadiazol-2-yl]-pyrrolidin-1-yl}-(5-methyl-2-[1,2,3]triazol-2-yl-phenyl)-methanone]
IC50 (orexin-1): 249 nM
IC50 (human orexin-2 receptor): 211 nM

Cc1ccc(-n2nccn2)c(C(=O)N2CCC[C@H]2c2nnc(-c3cccc(F)c3C)o2)c1 [Example 453, {(S)-2-[5-(3-Fluoro-2-methyl-phenyl)-[1,3,4]oxadiazol-2-yl]-pyrrolidin-1-yl}-(5-methyl-2-[1,2,3]triazol-2-yl-phenyl)-methanone]
IC50 (orexin-1): 398 nM
IC50 (human orexin-2 receptor): 80 nM

CCOc1ccccc1-c1nnc([C@@H]2CCCN2C(=O)c2cc(C)ccc2-n2nccn2)o1 [Example 454, {(S)-2-[5-(2-Ethoxy-phenyl)-[1,3,4]oxadiazol-2-yl]-pyrrolidin-1-yl}-(5-methyl-2-[1,2,3]triazol-2-yl-phenyl)-methanone]
IC50 (orexin-1): 1140 nM
IC50 (human orexin-2 receptor): 375 nM

Cc1ccc(-n2nccn2)c(C(=O)N2CCC[C@H]2c2nnc(-c3cccc(Cl)c3)o2)c1 [Example 455, {(S)-2-[5-(3-Chloro-phenyl)-[1,3,4]oxadiazol-2-yl]-pyrrolidin-1-yl}-(5-methyl-2-[1,2,3]triazol-2-yl-phenyl)-methanone]
IC50 (orexin-1): 835 nM
IC50 (human orexin-2 receptor): 1690 nM

CCOc1c(F)cccc1-c1nc([C@@H]2CCCN2C(=O)c2cc(C)c(C)cc2-n2nccn2)no1 [compound 324, (4,5-Dimethyl-2-[1,2,3]triazol-2-yl-phenyl)-{(S)-2-[5-(2-ethoxy-3-fluoro-phenyl)-[1,2,4]oxadiazol-3-yl]-pyrrolidin-1-yl}-methanone]
IC50 (human orexin-2 receptor): 1 nM

COc1c(F)cccc1-c1nc([C@@H]2CCCN2C(=O)c2cc(C)c(C)cc2-n2nccn2)no1 [compound 340, (4,5-Dimethyl-2-[1,2,3]triazol-2-yl-phenyl)-{(S)-2-[5-(3-fluoro-2-methoxy-phenyl)-[1,2,4]oxadiazol-3-yl]-pyrrolidin-1-yl}-methanone]
IC50 (human orexin-2 receptor): 0.4 nM

CCOc1ncccc1-c1nc([C@@H]2CCCN2C(=O)c2cc(Cl)c(C)cc2-n2nccn2)no1 [compound 380]
IC50 (human orexin-2 receptor): 1 nM

Cc1ccc(C(=O)N2CCC[C@H]2c2cnc(-c3ccccc3)[nH]2)c(-n2nccn2)c1 [compound 520, (4-Methyl-2-[1,2,3]triazol-2-yl-phenyl)-[(S)-2-(2-phenyl-3H-imidazol-4-yl)-pyrrolidin-1-yl]-methanone]
IC50 (orexin-1): 650 nM

{(S)-2-[3-(3-Chloro-2-methyl-phenyl)-[1,2,4]oxadiazol-5-yl]-pyrrolidin-1-yl}-[3-(2-chloro-phenyl)-5-methyl-isoxazol-4-yl]-methanone [Reference compound 7, reference compound]
IC50 (human orexin-2 receptor): 37 nM
